Results as given in patent publication US20120101083A1, “S1P1 AGONISTS COMPRISING A BICYCLIC N-CONTAINING RING” (GLAXO GROUP LIMITED, priority 2009, published 2012).
pEC50: −log10 of the molar value. Counter-ions that a name gives are not always drawn.

Columns and labels:
[1] = target: T1, S1P1 (PathHunter CHO-K1 EDG1 β-Arrestin cell line) (Homo sapiens, UniProt P21453); assay: S1P-1 β-Arrestin recruitment assay; assay type: cell-based; details: CHO-K1 EDG1 β-Arrestin cells, chemi-luminescence
T1 construct: host or cells: PathHunter CHO-K1 EDG1 β-Arrestin cell line
T1 sequence (P21453 whole entry): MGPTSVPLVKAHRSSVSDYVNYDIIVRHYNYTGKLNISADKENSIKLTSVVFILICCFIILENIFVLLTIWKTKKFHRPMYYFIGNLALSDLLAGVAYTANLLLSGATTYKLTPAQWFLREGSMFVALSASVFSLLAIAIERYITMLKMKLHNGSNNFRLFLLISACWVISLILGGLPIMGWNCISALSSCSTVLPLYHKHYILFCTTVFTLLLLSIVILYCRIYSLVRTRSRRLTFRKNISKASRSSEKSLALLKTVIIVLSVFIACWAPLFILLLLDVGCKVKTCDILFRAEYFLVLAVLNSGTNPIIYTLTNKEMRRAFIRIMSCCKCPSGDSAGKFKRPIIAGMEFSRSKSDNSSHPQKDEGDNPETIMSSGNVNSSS
T1 sequence (P32121 whole entry partner): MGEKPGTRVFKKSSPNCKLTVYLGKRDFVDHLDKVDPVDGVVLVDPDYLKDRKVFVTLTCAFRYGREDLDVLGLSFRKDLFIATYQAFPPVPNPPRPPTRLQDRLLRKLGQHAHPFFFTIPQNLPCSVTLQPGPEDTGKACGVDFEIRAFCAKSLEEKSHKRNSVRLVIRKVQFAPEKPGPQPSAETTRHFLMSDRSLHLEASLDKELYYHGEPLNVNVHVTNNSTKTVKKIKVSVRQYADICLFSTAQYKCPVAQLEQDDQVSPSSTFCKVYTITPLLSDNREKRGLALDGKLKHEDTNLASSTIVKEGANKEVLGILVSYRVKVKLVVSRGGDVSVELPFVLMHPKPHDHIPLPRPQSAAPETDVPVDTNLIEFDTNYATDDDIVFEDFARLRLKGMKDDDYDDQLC
Method in brief: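 CHO-K1 cells expressing S1P1 and β-arrestin 2 fused to complementing β-galactosidase fragments, at 1×10^4 cells/well in pH 7.4 buffer with 0.1% BSA. Compound exposure 90 min at 37 °C then 15 min room temperature; chemiluminescent substrate added for 60 min before luminescence read.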

[2] = target: T2, S1P1 receptor (S1P1 expressing RH7777 membranes) (Homo sapiens, UniProt P21453); assay: S1P1 GTPγS assay; assay type: biochemical; details: tested in one of the above S1P1 assays (two GTPγS formats)
T2 construct: expressed in transfected cells; host or cells: RH7777 cells (membranes)
T2 sequence (P21453 whole entry): as the sequence (P21453 whole entry) above
Method in brief: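 Membranes from RH7777 cells expressing human S1P1 (1.5 μg/well) precoupled 30 min on ice to WGA SPA beads in 20 mM HEPES pH 7.4, 10 mM MgCl2, 100 mM NaCl, with 10 μM GDP and 90 μg/ml saponin. [35S]-GTPγS 0.5 nM final added with compound; SPA signal read immediately.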

| Compound | pEC50 [1] | pEC50 [2] |
| --- | --- | --- |
| Cc1c(-c2noc(-c3ccc(OC(C)C)c(C#N)c3)n2)ccc2c1CCN(CC(=O)N[C@H](C)CO)C2 [Example 118, 2-[6-(5-{3-cyano-4-[(1-methylethyl)oxy]phenyl}-1,2,4-oxadiazol-3-yl)-5-methyl-3,4-dihydro-2(1H)-isoquinolinyl]-N-(1R)-2-hydroxy-1-methylethyl]acetamide hydrochloride] | ≥ 8.00 | ≥ 7.00 |
| Cc1c(-c2noc(-c3ccc(OC(C)C)c(C#N)c3)n2)ccc2c1CCN(CC(=O)N[C@@H](C)CO)C2 [Example 119, 2-[6-(5-{3-cyano-4-[(1-methylethyl)oxy]phenyl}-1,2,4-oxadiazol-3-yl)-5-methyl-3,4-dihydro-2(1H)-isoquinolinyl]-N-[(1S)-2-hydroxy-1-methylethyl]acetamide hydrochloride] | ≥ 8.00 | ≥ 8.00 |
| CC(C)Oc1ccc(-c2nc(-c3ccc4c(c3)CCN(CC(=O)NCCO)CC4)no2)cc1C#N [Example 111, 2-[7-(5-{3-cyano-4-[(1-methylethyl)oxy]phenyl}-1,2,4-oxadiazol-3-yl)-1,2,4,5-tetrahydro-3H-3-benzazepin-3-yl]-N-(2-hydroxyethyl)acetamide hydrochloride] | ≥ 8.00 | ≥ 7.00 |
| CC(C)Oc1ccc(-c2nc(-c3ccc4c(c3)CCN(CC(=O)N3CC(O)C3)CC4)no2)cc1C#N [Example 93, 5-(3-{3-[2-(3-hydroxy-1-azetidinyl)-2-oxoethyl]-2,3,4,5-tetrahydro-1H-3-benzazepin-7-yl}-1,2,4-oxadiazol-5-yl)-2-[(1-methylethyl)oxy]benzonitrile hydrochloride] | ≥ 8.00 | ≥ 8.00 |
| COCCN1CCc2c(ccc(-c3noc(-c4ccc(OC(C)C)c(C#N)c4)n3)c2C)C1 [Example 9, 2-[(1-Methylethyl)oxy]-5-(3-{5-methyl-2-[2-(methyloxy)ethyl]-1,2,3,4-tetrahydro-6-isoquinolinyl}-1,2,4-oxadiazol-5-yl)benzonitrile] | ≥ 7.00 | ≥ 7.00 |

Second part, the molecule after the results:

| pEC50 [1] | pEC50 [2] | Compound |
| --- | --- | --- |
| ≥ 7.00 | ≥ 6.00 | CC(C)Oc1ccc(-c2nc(-c3ccc4c(c3)CCN(C(=O)CNC[C@H](O)CO)CC4)no2)cc1C#N [Example 196, 5-[3-(3-{N-[(2S)-2,3-dihydroxypropyl]glycyl}-2,3,4,5-tetrahydro-1H-3-benzazepin-7-yl)-1,2,4-oxadiazol-5-yl]-2-[(1-methylethyl)oxy]benzonitrile hydrochloride] |
| ≥ 8.00 | ≥ 8.00 | Cc1c(-c2noc(-c3ccc(OC(C)C)c(C#N)c3)n2)ccc2c1CCN(CC(=O)NCCO)C2 [Example 122, 2-[6-(5-{3-cyano-4-[(1-methylethyl)oxy]phenyl}-1,2,4-oxadiazol-3-yl)-5-methyl-3,4-dihydro-2(1H)-isoquinolinyl]-N-(2-hydroxyethyl)acetamide hydrochloride] |
| ≥ 8.00 | ≥ 7.00 | Cc1c(-c2noc(-c3ccc(OC(C)C)c(C#N)c3)n2)ccc2c1CCN(CC(=O)NC(CO)CO)CC2 [Example 186, 2-[7-(5-{3-cyano-4-[(1-methylethyl)oxy]phenyl}-1,2,4-oxadiazol-3-yl)-6-methyl-1,2,4,5-tetrahydro-3H-3-benzazepin-3-yl]-N-[2-hydroxy-1-(hydroxymethyl)ethyl]acetamide] |
| ≥ 8.00 | 9.00 | Cc1c(-c2noc(-c3ccc(OC(C)C)c(C#N)c3)n2)ccc2c1CCN(C(=O)CNCCO)CC2 [Example 155, 5-(3-{3-[N-(2-hydroxyethyl)glycyl]-6-methyl-2,3,4,5-tetrahydro-1H-3-benzazepin-7-yl}-1,2,4-oxadiazol-5-yl)-2-[(1-methylethyl)oxy]benzonitrile] |
| ≥ 8.00 | ≥ 7.00 | CC(C)Oc1ccc(-c2nc(-c3ccc4c(c3)CCN(CC(=O)NC[C@H](O)CO)CC4)no2)cc1C#N [Example 194, 2-[7-(5-{3-cyano-4-[(1-methylethyl)oxy]phenyl}-1,2,4-oxadiazol-3-yl)-1,2,4,5-tetrahydro-3H-3-benzazepin-3-yl]-N-[(2S)-2,3-dihydroxypropyl]acetamide hydrochloride] |
